Measured values taken from patent publication US20240327406A1, “POTASSIUM CHANNEL MODULATORS” (Autifony Therapeutics Limited, priority 2021, published 2024).
“And” between values parts separate entries of the source, which are not always exact repeats. Identical values can stand only once. Like-named read-outs stand apart in the source and are kept apart here.

Target: T1, human Kv3.1 channels (hKv3.1) (Homo sapiens, UniProt P48547)
T1 sequence (P48547 1-501 limits assumed): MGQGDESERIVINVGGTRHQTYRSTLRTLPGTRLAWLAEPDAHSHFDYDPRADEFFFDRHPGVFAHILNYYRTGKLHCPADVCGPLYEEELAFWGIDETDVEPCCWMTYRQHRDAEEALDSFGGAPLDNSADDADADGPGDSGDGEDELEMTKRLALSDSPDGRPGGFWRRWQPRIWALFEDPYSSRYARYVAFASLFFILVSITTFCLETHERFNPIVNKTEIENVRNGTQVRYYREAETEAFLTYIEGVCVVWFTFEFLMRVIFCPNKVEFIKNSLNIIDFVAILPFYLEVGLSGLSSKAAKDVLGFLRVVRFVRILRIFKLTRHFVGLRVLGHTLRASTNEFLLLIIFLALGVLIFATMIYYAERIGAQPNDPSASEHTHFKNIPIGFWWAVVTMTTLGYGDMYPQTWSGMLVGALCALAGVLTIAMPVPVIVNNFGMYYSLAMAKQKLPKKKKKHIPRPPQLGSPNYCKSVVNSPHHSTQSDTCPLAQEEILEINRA
Test: Measurement of Kv3 channel modulation: Kv3.1 assay (IonWorks Quattro whole-cell electrophysiology)
Assay type: cell-based
Conditions: for Kv3.1 max R %: normalised to maximum effect of reference compound (50 microM)
Method: The ability of the compounds of the invention to modulate the voltage-gated potassium channel subtypes Kv3.4/Kv3.3/Kv3.2/Kv3.1 may be determined using the following assay. Analogous methods may be used to investigate the ability of the compounds of the invention to modulate other channel subtypes.
Human embryonic kidney (HEK)-hKv3.1 cell line is generated by transfecting HEK-293 cells with an expression vector with human Kv3.1 (NM_004976.4). Cells are cultured with MEM supplemented with 10% Heat-Inactivated FBS, 2 mM L-glutamine, 1% Penicillin-Streptomycin, and 0.6 mg/ml of Geneticin (G418). HEK-hKv3.1b cells were amplified in T175 cm2 flask at 37° C. with 5% CO2, using MEM amplification medium, containing the G418 selection antibiotic (0.6 mg/ml). Cells were detached every 3-4 days, using DPBS to wash twice the flask, then TrypLE to dislodge the cells, and re-plated at a density of 2-4×10^6 cells/flask.
The day of the experiment, cells are removed from the incubator and the culture medium removed. Cells are washed with 5 ml of Dulbecco's PBS (DPBS) calcium and magnesium free and detached by the addition of 3 ml Versene (Invitrogen, Italy) followed by a brief incubation at 37° C. for 5 minutes. The flask is tapped to dislodge cells and 10 ml of DPBS containing calcium and magnesium is added to prepare a cell suspension. The cell suspension is then placed into a 15 ml centrifuge tube and centrifuged for 2 min at 1200 rpm. After centrifugation, the supernatant is removed and the cell pellet re-suspended in 4 ml of DPBS containing calcium and magnesium using a 5 ml pipette to break up the pellet. Cell suspension volume is then corrected to give a cell concentration for the assay of approximately 3 million cells per ml.
Experiments are conducted at r.t. using IonWorks Quattro™ planar array electrophysiology technology (Molecular Devices Corp.) with PatchPlate™ PPC. Stimulation protocols and data acquisition are carried out using a microcomputer (Dell Pentium 4). Planar electrode hole resistances (Rp) are determined by applying a 10 mV voltage step across each well. These measurements are performed before cell addition. After cell addition and seal formation, a seal test is performed by applying a voltage step from −80 mV to −70 mV for 160 ms. Following this, amphotericin-B solution is added to the intracellular face of the electrode to achieve intracellular access. Cells are held at −70 mV. Leak subtraction is conducted in all experiments by applying 50 ms hyperpolarizing (10 mV) prepulses to evoke leak currents followed by a 20 ms period at the holding potential before test pulses.
For hKv3.2 and hKv3.1, assays from the holding potential of −70 mV, a first test pulse at −15 mV was applied for 100 ms and after 100 ms at −70 mV a second pulse at +40 mV was applied for 50 ms. Cells were then maintained for 100 ms at −100 mV and another pulse from […] to +40 mV (duration 50 ms) was applied to clamp later the voltage at −40 mV during 200 ms
The intracellular solution contains the following (in mM): K-gluconate 100, KCl 54, MgCl2 3.2, HEPES 5, adjusted to pH 7.3 with KOH. Amphotericin-B solution is prepared as 50 mg/ml stock solution in DMSO and diluted to a final working concentration of 0.1 mg/ml in intracellular solution.
Compounds of use in the invention (or reference compounds such as N-cyclohexyl-N-[(7,8-dimethyl-2-oxo-1,2-dihydro-3-quinolinyl)methyl]-N′-phenylurea) are dissolved in dimethylsulfoxide (DMSO) at a stock concentration of 10 mM. […] Each dilution (1 μL) is transferred to another compound plate and external solution containing 0.05% pluronic acid (66 μL) is added. 3.5 μL from each plate containing a compound of the invention is added and incubated with the cells during the IonWorks Quattro™ experiment. The final assay dilution is 200 and the final compound concentrations are in the range 50 μM to 50 nM.

[1] = Table 2, Example compounds, rounded to one decimal place, some compounds with two data sets (n given in cell), read-out: Kv3.1 pEC50 (converted)
[2] = Table 1, Reference Examples, current at -15 mV step, normalised to 50 microM reference compound, read-out: Kv3.1 pEC50 (converted)
[3] = Table 3, Reference Examples and corresponding Examples, rounded to one decimal place, read-out: Kv3.1 pEC50 (converted)

Structure (SMILES)	Kv3.1 max R % (Table 2, Example compounds)	EC50 [1]	Kv3.1 max R % (Table 1, Reference Examples)	further results
COc1cccc(Oc2ccc(-n3c(=O)[nH]c4cnc(C)nc43)cn2)c1 [Example 28, 9-[6-(3-methoxyphenoxy)-3-pyridyl]-2-methyl-7H-purin-8-one]	140%	3980 nM	–	–
Cc1ccc(Oc2ccc(-n3c(=O)[nH]c4cncnc43)cn2)c2c1OCC21CC1 [Example 29, 9-[6-(7-methylspiro[2H-benzofuran-3,1′-cyclopropane]-4-yl)oxy-3-pyridyl]-7H-purin-8-one]	117%	158 nM	–	–
Cc1ncc2[nH]c(=O)n(-c3ccc(Oc4cccc5c4C(C)(C)CO5)nc3)c2n1 [Example 30, 9-[6-[(3,3-dimethyl-2H-benzofuran-4-yl)oxy]-3-pyridyl]-2-methyl-7H-purin-8-one]	123%	126 nM	–	–
Cc1ccc(Oc2ncc(-n3c(=O)[nH]c4cccnc43)cn2)c2c1OCC21CC1 [Example 31, 3-[2-(7-methylspiro[2H-benzofuran-3,1′-cyclopropane]-4-yl)oxypyrimidin-5-yl]-1H-imidazo[4,5-b]pyridine-2-one]	217%	200 nM	–	–
O=c1[nH]c2c[nH]nc2n1-c1ccc(Oc2cccc3c2C2(CC2)CO3)nc1 [Example 34, 6-(6-spiro[2H-benzofuran-3,1′-cyclopropane]-4-yloxy-3-pyridyl)-2,4-dihydroimidazo[4,5-c]pyrazol-5-one]	128% and 131%	10000 nM	–	Kv3.1 pEC50 (Table 2, Example compounds, rounded to one decimal place, some compounds with two data sets (n given in cell)): 5.0 (n = 2)
Cc1ccc(Oc2ccc(-n3c(=O)[nH]c4ccncc43)cn2)c2c1OCC21CC1 [Example 35, 3-[6-(7-methylspiro[2H-benzofuran-3,1′-cyclopropane]-4-yl)oxy-3-pyridyl]-1H-imidazo[4,5-c]pyridin-2-one]	225%	1000 nM	–	–
O=c1[nH]c2ncccc2n1-c1ccc(Oc2cccc3c2C2(CC2)CO3)nc1 [Example 36, 1-(6-spiro[2H-benzofuran-3,1′-cyclopropane]-4-yloxy-3-pyridyl)-3H-imidazo[4,5-b]pyridin-2-one]	113%	–	–	EC50 (Kv3.1 pEC50, Table 2, Example compounds, rounded to one decimal place, some compounds with two data sets (n given in cell)): 631 nM; EC50 (Kv3.1 pEC50, Table 3, Reference Examples and corresponding Examples, rounded to one decimal place): 631 nM
Cc1ccc2[nH]c(=O)n(-c3cnc(Oc4cccc5c4C4(CC4)CO5)cn3)c2n1 [Example 37, 5-methyl-3-(5-spiro[2H-benzofuran-3,1′-cyclopropane]-4-yloxypyrazin-2-yl)-1H-imidazo[4,5-b]pyridin-2-one]	124%	126 nM	–	–
Cc1cnc2c(c1)[nH]c(=O)n2-c1cnc(Oc2cccc3c2C2(CC2)CO3)cn1 [Example 38, 6-methyl-3-(5-spiro[2H-benzofuran-3,1′-cyclopropane]-4-yloxypyrazin-2-yl)-1H-imidazo[4,5-b]pyridin-2-one]	122%	200 nM	–	–
Cc1ccc(Oc2ncc(-n3c(=O)[nH]c4cccnc43)cn2)c2c1OCC2(C)C [Example 39, 3-[2-[(3,3,7-trimethyl-2H-benzofuran-4-yl)oxy]pyrimidin-5-yl]-1H-imidazo[4,5-b]pyridin-2-one]	215%	1580 nM	–	–
CC[C@H]1NC(=O)N(c2ccc(Oc3ccc(C)c4c3C3(CC3)CO4)nc2)C1=O [RE1, reference compound]	–	–	157%	–
CC[C@@H]1CN(c2ccc(Oc3ccc(C)c4c3C3(CC3)CO4)nc2)C(=O)N1 [RE2, reference compound]	–	–	92%	EC50 [2]: 20000 nM
Cc1ccc(Oc2ccc(N3C(=O)NC4COCC43)cn2)c2c1OCC21CC1 (stereo not drawn) [RE3, reference compound]	–	–	30%	EC50 [2]: > 50100 nM
Cc1ccc(Oc2ncc(N3C(=O)NC(C)(C)C3=O)cn2)c2c1OCC21CC1 [RE4, reference compound]	–	–	158%	–
Cc1ccc(Oc2ccc(N3C(=O)CC(C)(C)NC3=O)cn2)c2c1OCC21CC1 [RE5, reference compound]	–	–	90%	EC50 [2]: 11200 nM
Cc1ccc(Oc2ccc(N3C(=O)NCC(C)(C)C3=O)cn2)c2c1OCC21CC1 [RE6, reference compound]	–	–	111%	EC50 [2]: 25100 nM
Cc1ccc(Oc2ccc(N3CCNC3=O)cn2)c2c1OCC21CC1 [RE7, reference compound]	–	–	29%	EC50 [2]: 39800 nM
Cc1ccc(Oc2ccc(N3C(=O)CCNC3=O)cn2)c2c1OCC21CC1 [RE8, reference compound]	–	–	140%	EC50 [2]: 25100 nM
CC1(C)COc2cccc(Oc3ncc(-n4c(=O)[nH]c5cnccc54)cn3)c21 [RE9, reference compound]	–	–	–	EC50 [3]: > 50100 nM
O=c1[nH]c2cnccc2n1-c1ccc(Oc2cccc(OC(F)(F)F)c2)nc1 [RE10, reference compound]	–	–	–	EC50 [3]: 2510 nM
Cc1ccc(Oc2ccc(N3C(=O)NCc4cccnc43)cn2)c2c1OCC21CC1 [RE11, reference compound]	–	–	–	EC50 [3]: 2000 nM
